The LD50 is the dose at which mortality reaches 50%.

The text below walks through data of patent US4107424A, “1-N-[(S)-α-hydroxy-ω-aminoacyl] derivatives of 3',4'-dideoxykanamycin B and 3'-deoxykanamycin B antibiotics” (Zaidan Hojin Biseibutsu Kagaku Kenkyu Kai, priority 1972, dated 1978).

Data set [1] deals with kanamycin-resistant strains. The note with it: strains producing 3'-hydroxyl phosphorylating enzyme; cited from earlier work.
For data set [2], the system named is Escherichia coli K-12 LA 290 R 55. Put plainly: Minimal inhibitory concentration, agar dilution streak method. It counts as cell-based. The note with it: 18 h. The procedure: (§1) *Agar Agar dilution streak method (nutrient agar, 37° C, 18 hours)
(§2) *Agar dilution streak method (nutrient agar, 37° C, 18 hours).
For orientation: In agar dilution, organisms are placed on agar that contains the substance at set levels.

The test system of data set [3] is Escherichia coli K-12 ML 1629. The description is as above. The note with it: K12ML1629, nutrient agar, 37° C, 18 hours. Type of data set: cell-based. On the procedure: as §1, §2
Data set [4] relates to Escherichia coli K-12 JR 66/W 677. Described as above. Type of data set: cell-based. The note with it: Escherichia coli, 18 h. The procedure:
as §1, §2

Data set [5] has as its system Pseudomonas aeruginosa GN 315. The data set is described as above. Type of data set: cell-based. The note with it: GN315, nutrient agar, 37° C, 18 hours. On the procedure: as §1, §2
The next data set deals with Proteus rettgeri GN 311. Described as above. Type of data set: cell-based. The note with it: Providencia rettgeri, GN311; nutrient agar, 37° C, 18 hours. On the procedure: (§3) [α]D^22 + 38°, (c 0.85, water).
as §1, §2

For data set [6], the system named is Escherichia coli K-12 R-5. The data set is described as above. Type of data set: cell-based. The note with it: K12R5, nutrient agar, 37° C, 18 hours. On the procedure:
as §3, §1, §2

Data set [7] relates to Bacillus subtilis NRRL B-558. The data set is described as above. It counts as cell-based. The note with it: NRRLB558, nutrient agar, 37° C, 18 hours. On the procedure:
as §3, §1, §2

Data set [8] relates to Escherichia coli K-12 C 600 R 135. Described as above. It counts as cell-based. The note with it: 18 h, read-out: Minimal inhibitory concentration. On the procedure: as §3, §1, §2
The next data set deals with Escherichia coli NIHJ. The description is as above. It counts as cell-based. The note with it: nutrient agar, 37° C, 18 hours. On the procedure:
as §3, §1, §2

Data set [9] concerns Klebsiella pneumoniae PCI 602. The data set is described as above. Type of data set: cell-based. The note with it: PCI602, nutrient agar, 37° C, 18 hours. On the procedure: as §3, §1, §2
Data set [10] concerns Escherichia coli J 5 R 11-2. The description is as above. It counts as cell-based. The note with it: J5R112, 18 h, read-out: Minimal inhibitory concentration. The procedure: as §3, §1, §2
The next data set has as its system Sarcina lutea PCI 1001. Described as above. The note with it: Micrococcus luteus, PCI1001; nutrient agar, 37° C, 18 hours; read-out: Minimal inhibitory concentration. It counts as cell-based. On the procedure: as §3, §1, §2
The test system of another data set is Salmonella typhosa T-63. Described as above. Type of data set: cell-based. The note with it: Salmonella enterica, nutrient agar, 37° C, 18 hours. On the procedure:
as §3, §1, §2

The test system of data set [11] is Pseudomonas aeruginosa 99. The description is as above. Type of data set: cell-based. The note with it: nutrient agar, 37° C, 18 hours, read-out: Minimal inhibitory concentration. The procedure: as §3, §1, §2
The subject of the next data set is Proteus rettgeri GN 466. Described as above. Type of data set: cell-based. The note with it: Providencia rettgeri, GN466; nutrient agar, 37° C, 18 hours. The procedure:
as §3, §1, §2

The nature of another data set: in vivo. The note with it: mouse, iv.
In data set [12] the test system is Escherichia coli K-12 W 677. Nature of the data set: Minimal inhibitory concentration, agar dilution streak method. Type of data set: cell-based. The note with it: K12W677, nutrient agar, 37° C, 18 hours, read-out: Minimal inhibitory concentration. On the procedure: as §1, §2
Data set [13] relates to Pseudomonas aeruginosa TI-13. The description is as above. The note with it: TI13, nutrient agar, 37° C, 18 hours, read-out: Minimal inhibitory concentration. It counts as cell-based. The procedure: as §1, §2
The subject of data set [14] is Escherichia coli K-12 LA 290 R 64. The data set is described as above. It counts as cell-based. The note with it: nutrient agar, 37° C, 18 hours, read-out: Minimal inhibitory concentration. On the procedure:
as §1, §2

Data set [15] has as its system Pseudomonas aeruginosa No.12. The description is as above. It counts as cell-based. The note with it: nutrient agar, 37° C, 18 hours, read-out: Minimal inhibitory concentration. On the procedure: as §1, §2
Data set [16] concerns Pseudomonas aeruginosa A 3. The description is as above. It counts as cell-based. The note with it: A3, nutrient agar, 37° C, 18 hours, read-out: Minimal inhibitory concentration. The procedure: as §1, §2
In data set [17] the test system is Klebsiella pneumoniae type 22 #3038. The description is as above. Type of data set: cell-based. The note with it: Klebsiella pneumoniae; nutrient agar, 37° C, 18 hours. On the procedure: as §1, §2
For data set [18], the system named is Escherichia coli K-12 ML 1630. The data set is described as above. Type of data set: cell-based. The note with it: K12ML1630, nutrient agar, 37° C, 18 hours, read-out: Minimal inhibitory concentration. The procedure:
as §1, §2

Data set [19] deals with Escherichia coli K-12 LA 290 R 56. The data set is described as above. It counts as cell-based. The note with it: 18 h, read-out: Minimal inhibitory concentration. On the procedure: as §1, §2
For data set [20], the system named is Mycobacterium smegmatis ATCC 607. Described as above. The note with it: Mycolicibacterium smegmatis, ATCC607; nutrient agar, 37° C, 48 hours; read-out: Minimal inhibitory concentration. It counts as cell-based.
In data set [21] the test system is gram-positive and gram-negative bacteria. Put plainly: Antibacterial activity (in words). It counts as cell-based. The procedure: as §3
A further data set has as its system mice. Nature of the data set: Acute intravenous toxicity (LD50) in mice. The note with it: in words.
The mark [22] stands for this setting: read-out: minimum inhibitory concentrations.
[23] abbreviates: drug-resistant strain, read-out: minimum inhibitory concentrations.
Where [24] appears, read: read-out: Minimal inhibitory concentration.

Converted amounts (≈) assume the structure as drawn. Read-outs that look alike come from different tables or passages of the source. A value given as a limit tells only on which side of the number the result lay.

On to `NCC1OC(OC2C(N)CC(N)C(OC3OC(CO)C(O)C(N)C3O)C2O)C(O)CC1O` (stereo not shown) [3'-deoxykanamycin], for which the “activity against kanamycin-resistant strains” value in data set [1] is listed as “actually effective”.
Regarding `NC[C@H]1O[C@H](O[C@H]2[C@H](O)[C@@H](O)[C@H](N)C[C@@H]2N)[C@H](N)C[C@@H]1O` [3'-deoxyneamine], the MIC in [2] (setting [22]) is 100 µg/mL (≈ 326 µM); in data set [3] (setting [23]) it was 6.25 µg/mL (≈ 20.4 µM); in [4] (setting [22]), over 100 µg/mL; in data set [5] (setting [23]), over 100 µg/mL. Further, in [1], the “activity against kanamycin-resistant strains” value is listed as “actually effective”.
Take `NCC[C@H](O)C(=O)N[C@@H]1C[C@H](N)[C@@H](O[C@H]2O[C@H](CN)CC[C@H]2N)[C@H](O)[C@H]1O` [AHB-dideoxyneamine, 1-N-[(S)-4-amino-2-hydroxybutyryl]-3',4'-dideoxyneamine]: the MIC was 25 µg/mL (≈ 63.9 µM) in the data set with Proteus rettgeri GN 311; 50 µg/mL (≈ 128 µM) in [6]; under 0.39 µg/mL in data set [7]; 12.5 µg/mL (≈ 31.9 µM) in data set [8]; 3.12 µg/mL (≈ 7.97 µM) against Escherichia coli NIHJ; 6.25 µg/mL (≈ 16 µM) in data set [9]. For the same compound, the MIC in data set [10] was found to be 6.25 µg/mL (≈ 16 µM); with Sarcina lutea PCI 1001, 25 µg/mL (≈ 63.9 µM); in the data set with Salmonella typhosa T-63, 1.56 µg/mL (≈ 3.98 µM); in data set [11], 25 µg/mL (≈ 63.9 µM); in the data set with Proteus rettgeri GN 466, 12.5 µg/mL (≈ 31.9 µM); in data set [12] it was 3.12 µg/mL (≈ 7.97 µM). For the same compound, the MIC in [13] is 6.25 µg/mL (≈ 16 µM); in data set [14], 3.12 µg/mL (≈ 7.97 µM); in [2] (setting [24]), 3.12 µg/mL (≈ 7.97 µM); in data set [15] it was 6.25 µg/mL (≈ 16 µM); in data set [3] (setting [24]) it was 3.12 µg/mL (≈ 7.97 µM); in [16], 6.25 µg/mL (≈ 16 µM). For the same compound, the MIC in data set [17] is 12.5 µg/mL (≈ 31.9 µM); in [4] (setting [24]) it was 12.5 µg/mL (≈ 31.9 µM); in [5] (setting [24]) it was over 100 µg/mL; in [18], 3.12 µg/mL (≈ 7.97 µM); in data set [19] it was 3.12 µg/mL (≈ 7.97 µM); in data set [20], 6.25 µg/mL (≈ 16 µM). Further, the LD50 in the data set “in vivo” was over 100 mg/kg. Besides, the “antibacterial activity compared with parent or reference substance” value in [21] (sensitive (and resistant) bacteria) was “higher antibacterial activity than that of the parent substance, 3',4'-dideoxyneamine, against both sensitive and resistant bacteria”. The antibacterial activity result in [21] (various gram-positive and gram-negative bacteria, including resistant strains) was “exhibits a antibacterial activity against various gram-positive and gram-negative bacteria, including the kanamycin-resistant strains”. For the same compound, the toxicity entry in the data set with mice is “lower toxicity to animals and men”.
